Laboratory results taken from PubChem BioAssay (NCI).
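1) Cells in 96-well plates. 2) Compound, 48 h, 5 concentrations. 3) Linear interpolation between surrounding doses. 4) Unreached endpoint = highest concentration. Definition used: TGI = concentration required for complete inhibition of growth.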

How the values were obtained:
Assay in all cases: growth of human tumour cells (NCI), 48 h
[1] = tested on: NCI-H23 lung
[2] = tested on: UO-31 renal
[3] = tested on: SR leukemia
[4] = tested on: MALME-3M melanoma
[5] = tested on: 786-0 renal
[6] = tested on: HCC-2998 colon
[7] = tested on: SNB-19 CNS
[8] = tested on: UACC-257 melanoma
[9] = tested on: PC-3 prostate
[10] = tested on: CAKI-1 renal
[11] = tested on: NCI-H522 lung
[12] = tested on: T-47D breast
[13] = tested on: HCT-116 colon
[14] = tested on: OVCAR-8 ovarian
[15] = tested on: RXF 393 renal
[16] = tested on: LOX IMVI melanoma
[17] = tested on: MDA-MB-435
[18] = tested on: TK-10 renal
[19] = tested on: HT29 colon
[20] = tested on: OVCAR-4 ovarian
[21] = tested on: HL-60(TB) leukemia
[22] = tested on: SK-MEL-28 melanoma
[23] = tested on: RPMI-8226 leukemia
[24] = tested on: BT-549 breast
[25] = tested on: MOLT-4 leukemia
[26] = tested on: SF-268 CNS
[27] = tested on: SF-295 CNS
[28] = tested on: A549 NSCLC
[29] = tested on: A498 renal
[30] = tested on: SN12C renal
[31] = tested on: HCT-15 colon
[32] = tested on: MDA-N
[33] = tested on: UACC-62 melanoma
[34] = tested on: EKVX NSCLC
[35] = tested on: NCI-H460 lung
[36] = tested on: ACHN renal
[37] = tested on: COLO 205 colon
[38] = tested on: MDA-MB-231 breast
[39] = tested on: HOP-92 NSCLC
[40] = tested on: NCI/ADR-RES ovarian
[41] = tested on: IGROV1 ovarian
[42] = tested on: DU-145 prostate
[43] = tested on: OVCAR-3 ovarian
[44] = tested on: U251 CNS
[45] = tested on: K-562 leukemia
[46] = tested on: SK-MEL-5 melanoma
[47] = tested on: MCF7 breast
[48] = tested on: NCI-H226 lung
[49] = tested on: CCRF-CEM leukemia
[50] = tested on: HOP-62 NSCLC
[51] = tested on: SNB-75 CNS
[52] = tested on: SF-539 CNS
[53] = tested on: KM12 colon
[54] = tested on: HS 578T breast
[55] = tested on: SW-620 colon
[56] = tested on: SK-OV-3 ovarian
[57] = tested on: OVCAR-5 ovarian
[58] = tested on: M14 melanoma
[59] = tested on: SK-MEL-2 melanoma

Measured: TGI

Cc1nc2ccc(Cl)cc2c2c1CCO2
79.6 µM: [10]
> 100 µM: [1] | [2] | [3] | [4] | [5] | [6] | [7] | [8] | [9] | [11] | [12] | [13] | [14] | [16] | [17] | [18] | [19] | [20] | [21] | [22] | [23] | [24] | [25] | [26] | [27] | [28] | [29] | [30] | [31] | [32] | [33] | [34] | [35] | [36] | [37] | [38] | [39] | [40] | [41] | [42] | [43] | [44] | [45] | [46] | [47] | [48] | [49] | [50] | [51] | [52] | [53] | [54] | [55]
71.3 µM: [15]

O=c1[nH]cc(N=Cc2cc(Cl)ccc2O)c(=O)[nH]1
53.7 µM: [50]
48.9 µM: [58]
88.2 µM: [44]
19 µM: [49]
98 µM: [48]
89.8 µM: [39]
70.1 µM: [22]
61.6 µM: [36]
70 µM: [24]
63.1 µM: [25]
59.4 µM: [56]
24.8 µM: [3]
7.43 µM: [52]
53.3 µM: [23]
70.6 µM: [5]
60.7 µM: [12]
73.8 µM: [4]
66.8 µM: [42]
71.7 µM: [33]
76.9 µM: [14]
64.5 µM: [59]
52.6 µM: [21] | [41]
42.1 µM: [27]
47.3 µM: [26]
53.6 µM: [40]
75.7 µM: [37]
12.3 µM: [20]
> 100 µM: [1] | [2] | [6] | [7] | [8] | [9] | [10] | [11] | [13] | [15] | [17] | [18] | [19] | [57] | [28] | [29] | [30] | [31] | [32] | [34] | [35] | [38] | [43] | [45] | [46] | [47] | [53] | [54]

O=[N+]([O-])c1ccc(N2N=C(c3c(O)ccc4ccccc34)CC2c2ccc(Cl)cc2)c([N+](=O)[O-])c1 (centres undefined)
67 µM: [19]
45.5 µM: [53]
44.2 µM: [59]
45.6 µM: [45]
29.5 µM: [37]
32.4 µM: [25]
55.6 µM: [40]
60.4 µM: [33]
73.5 µM: [15]
39.1 µM: [27] | [46]
37.2 µM: [13]
88.1 µM: [28]
66.4 µM: [9]
63 µM: [4]
71 µM: [58]
> 100 µM: [1] | [2] | [5] | [6] | [8] | [11] | [12] | [14] | [17] | [18] | [20] | [22] | [23] | [24] | [56] | [57] | [26] | [30] | [31] | [32] | [35] | [36] | [39] | [41] | [42] | [43] | [44] | [47] | [48] | [51] | [54] | [55]
91.7 µM: [52]
93.2 µM: [10]
56.2 µM: [38]
31.4 µM: [3]
63.9 µM: [29]
31 µM: [49]
61.6 µM: [50]

Cc1cc(N2CCCCC2)nc2ccc(Cc3ccc4nc(N5CCCCC5)cc(C)c4c3)cc12
> 100 µM: [1] | [2] | [3] | [4] | [5] | [6] | [7] | [8] | [9] | [10] | [11] | [12] | [13] | [14] | [15] | [16] | [17] | [18] | [19] | [20] | [22] | [23] | [24] | [56] | [57] | [25] | [58] | [26] | [59] | [27] | [28] | [29] | [30] | [31] | [32] | [33] | [34] | [35] | [36] | [37] | [38] | [39] | [40] | [41] | [42] | [43] | [44] | [45] | [46] | [47] | [48] | [50] | [51] | [52] | [53] | [54] | [55]

COc1cc(Cl)c(CC(=O)c2c[nH]c3ccccc23)cc1OC
44.4 µM: [44]
> 52.6 µM: [38]
40.9 µM: [15]
15.6 µM: [39]
28.7 µM: [50]
31.5 µM: [51]
40 µM: [56]
45.1 µM: [48]
> 59.4 µM: [29]
> 43.3 µM: [2]
> 95 µM: [7]
> 57.5 µM: [49]
> 74 µM: [18]
> 67.3 µM: [21]
19.4 µM: [52]
> 68.3 µM: [27]
> 100 µM: [1] | [3] | [4] | [5] | [8] | [9] | [10] | [12] | [13] | [14] | [16] | [17] | [19] | [20] | [22] | [23] | [24] | [57] | [25] | [58] | [26] | [59] | [28] | [30] | [31] | [32] | [33] | [34] | [35] | [36] | [37] | [40] | [41] | [42] | [43] | [45] | [46] | [47] | [53] | [54] | [55]

O=CC(O)C(O)C(O)C(O)COC(=O)NCCCCC(=O)C(F)(F)C(F)(F)C(F)(F)C(F)(F)C(F)(F)C(F)(F)C(F)(F)F (centres undefined)
39.2 µM: [52]
47.5 µM: [29]
33.9 µM: [24]
60.2 µM: [58]
57.5 µM: [59]
59.5 µM: [51]
86.8 µM: [46]
61.7 µM: [37]
58.5 µM: [45]
93.5 µM: [26]
31.1 µM: [25]
56.4 µM: [56]
62.4 µM: [15] | [17]
42.1 µM: [55]
35.1 µM: [33]
73.5 µM: [32]
62.8 µM: [50]
64.6 µM: [54]
60.4 µM: [6]
33.4 µM: [13]
30.1 µM: [16]
46.4 µM: [53]
59.3 µM: [27]
41.5 µM: [9]
> 100 µM: [1] | [2] | [3] | [4] | [5] | [10] | [12] | [18] | [19] | [20] | [21] | [22] | [23] | [28] | [30] | [31] | [36] | [40] | [41] | [42] | [43]
34 µM: [47]
56 µM: [49]
33.8 µM: [57]
67.6 µM: [35]
47.6 µM: [38]
31.8 µM: [7] | [39]

CCOC(=O)c1c(N2CCCC2)[nH]c(=O)c(C(c2ccc(N(C)C)cc2)c2c(O)c(C(=O)OCC)c(N3CCCC3)[nH]c2=O)c1O
> 100 µM: [1] | [2] | [3] | [4] | [5] | [6] | [7] | [8] | [9] | [10] | [11] | [12] | [13] | [14] | [15] | [16] | [17] | [18] | [19] | [20] | [22] | [23] | [24] | [56] | [57] | [25] | [58] | [26] | [27] | [28] | [29] | [30] | [31] | [32] | [33] | [34] | [35] | [36] | [37] | [38] | [39] | [40] | [42] | [43] | [44] | [45] | [46] | [47] | [48] | [49] | [50] | [51] | [52] | [53] | [54] | [55]
